Assay results: patent publication US6894068B2, “Substituted benzimidazoles as non-nucleoside inhibitors of reverse transcriptase” (The United States of America as represented by the …, priority 1997, dated 2005)
Values joined by “and” are separate entries in the source; they are usually repeats but may differ in a detail not shown here. Identical values can stand only once. Like-named read-outs stand apart in the source and are kept apart here.

Legend:
[1] = test system: HIV-1 isolate Y181C; assay: Cytopathic cell killing assay, MT-4 cells, isolate Y181C; format: cell-based
Source text: (§1) The various HIV isolates tested in the Figures are those corresponding to wild-type virus (NL4-3) and the other strains listed by their RT mutations. The three 4×AZT isolates included in the Figures represent AZT drug-resistant variants. For example, the 4×AZT/L100I isolate has five mutations: four mutations confer increased resistance to AZT, and the other mutation is located within the NNRTI binding pocket. TZB and nevir. (nevirapine) are two well-known NNRTIs, included in this experiment for comparison purposes.
(§2) In this Example, the antiviral and cellular toxicity of NNRTIs was investigated, using the cytopathic cell killing assay described by Yang (Yang et al., “Characteristics of a Group of Non-nucleoside Reverse Transcriptase Inhibitors with Structural Diversity and Potent Anti-Human Immunodeficiency Virus Activity,” Leukemia 9:S75-S85 [1995]). Briefly, in this method cells (e.g., the CEM-SS cell line, available from the NIAID AIDS Research and Reference Program [ARRRP]) were seeded at a density of 5×10^3 cells/well, into the wells of a 96-well microtiter plate. The cells were then infected with HIV virus (either mutant or WT), at a multiplicity of infection (MOI) previously determined to provide complete cell killing by 6 days of culture post-infection (e.g., MOI of 0.01-0.05). Each of the HIV isolates was pre-titered to induce equivalent levels of infection based on cell killing or virus production, prior to their use in these assays. A range of test compound concentrations was added to the wells in triplicate (e.g., serial half-log dilutions) to evaluate inhibition of HIV infection. Controls for each assay included drug controls (drug colorimetric control wells), drug cytotoxicity control wells (cells with drug), virus control wells (cells with virus), and cell viability controls (cells only). Positive control drugs (e.g. AZT and ddC) were also run in parallel.
(§3) After six days of incubation at 37° C., cell viability was determined spectrophotometrically at 450 nm for each well, using the metabolic reduction of XTT to a soluble colored formazan. (See, Gartner and Popovic, “Virus Isolation and Production, in Aldovini and Walker (eds.), Techniques in HIV Research, Stockton Press, NY, pp. […] [1991]; and Nara and Fischinger, “Quantitative Infectivity Assay for HIV-1 and HIV-2, ” Nature 332:469-470 [1988]).
(§4) The in vitro therapeutic index (TI50) was defined as the fold-difference between the EC50 and IC50. The results for the various compounds are included in FIGS. 8 and 19.

[2] = test system: HIV-1 isolate V108I; assay: Cytopathic cell killing assay, MT-4 cells, isolate V108I; format: cell-based; conditions: values in μM
Source text: as §1, §2, §3, §4

[3] = test system: HIV-1 WT virus (NL4-3); assay: microbe, parasite or virus in culture; format: cell-based; conditions: for EC50: read-out: EC50; for inhibitory potency against HIV-1 (CIC50), result in words: CEMSS cell culture, WT virus (NL4-3), relative to parent compounds 1 and 2
Description: Evaluation of these compounds for the inhibition of HIV-1 was determined as the fifty percent cell culture inhibitory concentration (CIC50) in CEMSS cell culture with WT virus (NL4-3).
as §2, §3, §4

[4] = test system: HIV-1 isolate Y188C; assay: Cytopathic cell killing assay, MT-4 cells, isolate Y188C; format: cell-based; conditions: values in μM
Source text: as §1, §2, §3, §4

[5] = test system: HIV-1 NL4-3 (WT); assay: Cytopathic cell killing assay, MT-4 cells, isolate NL4-3 (WT); format: cell-based
Source text: as §1, §2, §3, §4

[6] = test system: HIV-1 isolate K103N; assay: Cytopathic cell killing assay, MT-4 cells, isolate K103N; format: cell-based; conditions: for EC50: values in μM
Source text: as §1, §2, §3, §4

[7] = test system: HIV-1 isolate V179D; assay: Cytopathic cell killing assay, MT-4 cells, isolate V179D; format: cell-based; conditions: MT-4 cells
Source text: as §1, §2, §3, §4

[8] = test system: HIV-1 isolate K101E; assay: Cytopathic cell killing assay, MT-4 cells, isolate K101E; format: cell-based
Source text: as §1, §2, §3, §4

[9] = molecular target: HIV-1 WT RT (Human immunodeficiency virus type 1 group M subtype B, UniProt P03366); assay: biochemical; format: biochemical
[10] = test system: HIV-1 isolate L100I; assay: Cytopathic cell killing assay, MT-4 cells, isolate L100I; format: cell-based
Source text: as §1, §2, §3, §4

[11] = test system: WT and HIV-1 variants containing amino acid substitutions in RT; format: cell-based; conditions: cytopathic cell killing assay, NNRTI-resistant HIV isolates
Source text: In these Tables, antiviral data are reported as the quantity of drug in μM required to reduce cell killing or virus production by 50% (EC50). The various HIV isolates tested in the Figures are those corresponding to wild-type virus (NL4-3) and the other strains listed by their RT mutations. The three 4×AZT isolates included in the Figures represent AZT drug-resistant variants.
Briefly, in this method cells (e.g., the CEM-SS cell line, available from the NIAID AIDS Research and Reference Program [ARRRP]) were seeded at a density of 5×10^3 cells/well, into the wells of a 96-well microtiter plate. The cells were then infected with HIV virus (either mutant or WT), at a multiplicity of infection (MOI) previously determined to provide complete cell killing by 6 days of culture post-infection (e.g., MOI of 0.01-0.05). Each of the HIV isolates was pre-titered to induce equivalent levels of infection based on cell killing or virus production, prior to their use in these assays. A range of test compound concentrations was added to the wells in triplicate (e.g., serial half-log dilutions) to evaluate inhibition of HIV infection. Controls for each assay included drug controls (drug colorimetric control wells), drug cytotoxicity control wells (cells with drug), virus control wells (cells with virus), and cell viability controls (cells only). Positive control drugs (e.g. AZT and ddC) were also run in parallel.
as §3
Antiviral and toxicity data were reported as the quantity of drug required to inhibit 50% of virus-induced cell killing or virus production (EC50), and the quantity of drug required to […] (IC50). The in vitro therapeutic index (TI50) was defined as the fold-difference between the EC50 and IC50.

[12] = Human immunodeficiency virus 1, MT4, read-out: EC50, isolate Y181C, Table 10, values in μM
[13] = Human immunodeficiency virus 1, MT4, read-out: EC50, isolate V108I, Table 10
[14] = Human immunodeficiency virus 1, NL43, CEM-SS, Table 7, drug concentration required to reduce cell killing or virus production by 50%, WT
[15] = Human immunodeficiency virus 1, MT4, read-out: EC50, isolate Y188C, Table 10
[16] = Human immunodeficiency virus 1, MT4, read-out: EC50, isolate Y181C, Table 8, MT-4 cells
[17] = Human immunodeficiency virus 1, NL43, MT4, Table 8, MT-4 cells, read-out: EC50, isolate NL4-3
[18] = Human immunodeficiency virus 1, NL43, CEM-SS, Table 11, CEMSS/NL4-3, NRVC = no reduction in viral CPE
[19] = Human immunodeficiency virus 1, MT4, read-out: EC50, isolate K103N, Table 10

Fc1cccc(F)c1Cn1c(-c2c(F)cccc2F)nc2c(Br)cccc21 [Compound 3400, 4-bromo-1-(2,6-difluorobenzyl)-2-(2,6-difluorophenyl)benzimidazole]
EC50 [1, 12]: 10.7 µM | EC50 [2, 13]: 4.2 µM | melting point: 147 to 148 °C | EC50 [3, 14]: 370 nM | EC50 [4, 15]: 3.7 µM

Cc1ccnc2c1NC(=O)c1cccnc1N2C1CC1 [nevir., nevirapine, reference compound]
EC50 [1, 16]: 4.9 µM | EC50 [5, 17]: 0.04 µM | activity against K103N, result in words ([6]; cytopathic cell killing assay): ineffective | EC50 [3, 18]: 35 nM | EC50 ([7]; Human immunodeficiency virus 1, MT4, read-out: EC50, isolate V179D, Table 9): 200 nM | EC50 ([8]; Human immunodeficiency virus 1, MT4, read-out: EC50, isolate K101E, Table 8, MT-4 cells): 1.1 µM

Fc1cccc(F)c1-c1nc2ccccc2n1Cc1ccccc1 [Compound 28, 1-benzyl-2-(2,6-difluorophenyl)benzimidazole]
melting point: 124 °C | RT inhibition, result in words ([9]; WT RT): decrease in inhibition

CC1Cn2c(=O)[nH]c3cccc(c32)CN1 (stereo not shown) [TIBO, 4,5,6,7-tetrahydro-5-methylimidazo[4,5,1-jk][1,4]benzodiazepin-2(1H)-one, reference compound]
EC50 ([10]; Human immunodeficiency virus 1, MT4, read-out: EC50, isolate L1001, Table 4, MT-4 cells): ≥ 17.4 µM

Cc1cccc2c1nc(-c1c(F)cccc1F)n2Cc1c(Cl)cccc1Cl [Compound 30, 1-(2,6-dichlorobenzyl)-2-(2,6-difluorophenyl)-4-methylbenzimidazole]
melting point: 202 to 203 °C | RT inhibition, result in words ([9]; WT RT): decrease in inhibition

CN(C)c1cccc2c1nc(-c1c(F)cccc1F)n2Cc1c(F)cccc1F [Compound 3700, 1-(2,6-difluorobenzyl)-2-(2,6-difluorophenyl)-4-N,N-dimethylaminobenzimidazole]
EC50 [1, 12]: > 100 µM | EC50 ([5]; Human immunodeficiency virus 1, NL43, MT4, Table 10, values in μM, read-out: EC50, isolate NL4-3 (WT)): 2.88 µM | EC50 [6, 19]: > 100 µM | EC50 ([10]; Human immunodeficiency virus 1, MT4, read-out: EC50, isolate L100I, Table 10, values in μM): 31.6 µM | melting point: 155 to 156 °C | EC50 [3, 14]: 2370 nM | EC50 [3, 18]: 2370 nM | inhibition at 1 µM ([9]; Table 7, 1 μM drug, WT HIV-1 RT, read-out: % inhibn (1 μM)): 77% | IC50 ([9]; read-out: IC50): 40000 nM

[N-]=[N+]=NCc1cccc2c1nc(-c1c(F)cccc1F)n2Cc1c(F)cccc1F [Compound 70, 1-(2,6-difluorobenzyl)-2-(2,6-difluorophenyl)benzimidazol-4-yl-azidomethyl]
EC50 ([1]; Table 10, values in μM, read-out: EC50, isolate Y181C): 0.82 µM | EC50 ([5]; Table 10, values in μM, read-out: EC50, isolate NL4-3 (WT)): 0.045 µM | EC50 ([6]; Table 10, read-out: EC50, isolate K103N): 1.48 µM | EC50 ([10]; Table 10, values in μM, read-out: EC50, isolate L100I): 0.06 µM | EC50 ([2]; Table 10, read-out: EC50, isolate V108I): 0.026 µM | EC50 ([3]; Table 11, CEMSS/NL4-3, NRVC = no reduction in viral CPE): 45 nM | EC50 ([8]; Table 10, values in μM, read-out: EC50, isolate K101E): 0.6 µM | EC50 ([4]; Table 10, read-out: EC50, isolate Y188C): 0.22 µM

CNc1cccc2c1nc(-c1c(F)cccc1F)n2Cc1c(F)cccc1F [Compound 5012, 1-(2,6-difluorobenzyl)-2-(2,6-difluorophenyl)-4-(N-methylamino)benzimidazole]
cross-resistance profile, result in words [11]: inhibit HIV-1 better than TZB | inhibitory potency against HIV-1 (CIC50), result in words [3]: significantly poorer inhibitors | EC50 [3, 14]: 1700 nM | EC50 [3, 18]: 1700 nM | EC50 ([7]; Human immunodeficiency virus 1, MT4, read-out: EC50, isolate V179D, Table 8): 3800 nM | IC50 [9]: 4940 nM | % inhibn (1 μM) ([9]; Table 7, 1 μM drug, WT HIV-1 RT): 24%

Fc1cccc(F)c1Cn1c(-c2c(F)cccc2F)nc2c(Cl)cccc21 [Compound 3500, 4-chloro-1-(2,6-difluorobenzyl)-2-(2,6-difluorophenyl)benzimidazole]
EC50 [1, 16]: 7.3 µM | EC50 [1, 12]: 8.4 µM | EC50 [5, 17]: 0.4 µM | cross-resistance profile, result in words [11]: inhibit HIV-1 better than TZB | EC50 [6, 19]: 10.2 µM | EC50 [2, 13]: 3.2 µM | melting point: 163 to 164 °C and 163 °C | inhibitory potency against HIV-1 (CIC50), result in words [3]: modest potency-enhancing effect | EC50 [3, 14]: 440 nM | EC50 [3, 18]: 440 nM | EC50 [4, 15]: 3.4 µM

Nc1cccc2c1nc(-c1c(F)cccc1F)n2Cc1c(F)cccc1F [Example 53]
melting point: 139 to 141 °C | EC50 [3, 18]: 460 nM | IC50 ([9]; Table 11, WT RT, read-out: IC50): 280 nM

Cc1ccccc1-c1nc2ccccc2n1Cc1c(F)cccc1F [Compound 36, 1-(2,6-difluorobenzyl)-2-(2-methylphenyl)benzimidazole]
melting point: 139 °C | RT inhibition, result in words ([9]; WT RT): two-fold decrease in RT inhibition

Cc1cccc2c1nc(-c1c(F)cccc1F)n2Cc1ccccc1 [Compound 29, 1-benzyl-2-(2,6-difluorophenyl)-4-methylbenzimidazole]
melting point: 112 to 117 °C | RT inhibition, result in words ([9]; WT RT): decrease in inhibition
